From US9464093B2, “Substituted imidazo[4',5':4,5]cyclopenta[1,2-e]pyrrolo[1,2-a]pyrazines and oxazolo[4',5':4,5]cyclopenta[1,2-e]pyrrolo[1,2-a]pyrazines for treating brain cancer” (Mayo Foundation for Medical Education and Research, priority 2012, dated 2016)
Entries after “also recorded” stand apart in the source; their conditions may differ.

Experiments:
Raji lymphoma cells [1] = experiment: Cell proliferation assay, Raji lymphoma cells (Example 3); format: cell-based; settings: 100, 500, or 1,000 nM; counted on the third day; vs vehicle
Procedure: Raji cells were purchased from American Tissue Culture (Manassas, Va.). […] Raji cells infected with lentivirus constructs were grown in selection media containing 2.5 μg/ml puromycin. For experiments, unless specified otherwise, all cells were switched back to maintenance media.
Two-tailed student T-test was used to analyze significant difference.

Raji lymphoma cells [2] = experiment: Matrigel invasion assay; format: cell-based; settings: 1 hour pre-treatment with log dilutions
Procedure: Invasion assays were performed in triplicate using BD Biocoat Matrigel Invasion Chamber (BD Biosciences: Sparks, Md.) according to manufacturer's instructions (8-μm pore-size). Five percent serum was used as a chemoattractant in the bottom chamber. […] Viability of Raji cells was ascertained by Trypan blue test after the treatment with AA. Statistical analysis was performed using two-tailed Student's T-Test.

[3] = CNS pharmacokinetic study in mice (microdialysis, CE-UV); format: in vivo, C57BL/6J mice; settings: 2.5 mg/kg i.p.
Procedure: The total of 90 male wild type C57BL/6J mice were used in this study. C57BL/6J mice were approximately 2 months of age and weighed 20˜25 g. All mice were housed in a temperature-controlled room ([…]) with a 12:12 light dark cycle (lights on at 0600). Purina 5001 Rodent Chow and tap water were available ad libitum at all times. Mouse use was approved by Mayo Foundation Institutional Animal Use and Care Committee (IACUC) and was consistent with NIH Guide for the Care and Use of Laboratory Animals. Agelastatin A was synthesized by Professor Takehiko Yoshimitsu at Graduate School of Pharmaceutical Sciences, Osaka University, Osaka, Japan. Professor Yoshimitsu has described details on the synthesis of this compound. Purity as determined by NMR spectra is >99%.
A total of five mice were used in microdialysis experiments. On the day of surgery, mice were anesthetized with gasiform isoflurane (1% isoflurane in a mixture of 20% oxygen and 80% nitrogen gas) and immobilized in a stereotaxic frame (KOPF Instruments, Tujunga, Calif.). […]
Briefly, the capillaries were preconditioned with 1 M sodium hydroxide for 2 min, water for 2 min and running buffer [100 mmol/1 solution of ammonium acetate (adjusted to pH 3.1 with acetic acid)-acetonitrile (50:50, v/v)] for 3 min. […] CNS penetration was determined as the ratio of CSF and blood area under the curve (AUC).

Raji lymphoma cells [4] = experiment: Intracerebral dissemination of lymphoma cells (CD20 IHC); format: in vivo, athymic mice
Text: Paraffin sections (10 μm thick) were fixed and mounted onto glass slides, blocked, and immunostained with antibody to CD20 to identify B lymphoma cells.
Murine brains harvested from the in-vivo experiments to assess the pre-clinical therapeutic activity of AA were studied by IHC. CD20-positive lymphoma cells were counted in the cerebral hemisphere contralateral to the tumor implantation side for dissemination in lateral, anterior, and posterior directions by ScanScope XT slide scanner and image analysis system (Aperio Spectrum, Vista, Calif.). One-way ANOVA was used to determine the statistical significance of the difference between the treated group and untreated control group.

osteopontin = experiment: Osteopontin secretion ELISA in Raji cells; format: cell-based, human; settings: culture medium, four days
Procedure: 10^5 Raji lymphoma cells were seeded in 5 ml media in 6-well plates in triplicate and were grown for four days. Cells were pelleted and the media was collected for analysis. Duplicate four hundred microliters of media supernatant were assayed for osteopontin by ELISA using Quantikine human osteopontin ELISA kit (R&D Systems, Inc., Minneapolis, Minn.). Statistical analysis was performed using two-tailed Student's T-Test.

NFkB signaling [5] = experiment: NFkB reporter assay in Raji cells; format: cell-based; settings: 100 nM and 500 nM for 48 hours
Text: 10^5 Raji cells were co-transfected overnight with a Cignal firefly luciferase-expressing NFkB reporter plasmid (NFkBr; SA Biosciences) together with a constitutively expressed Renilla luciferase reporter plasmid containing a CMV promoter. A promoterless vector (Neg-Luc) was co-transfected with the Renilla reporter for control. […] Data are presented as a ratio of firefly-to-Renilla luciferase luminescence.

NFkB signaling [6] = experiment: In vivo NFkB signaling of Raji cells implanted in murine brain (BLI); design: species or system athymic mice; settings: 2.5 mg/kg and 5 mg/kg intraperitoneally the day after implantation
Procedure: An in-vivo experiment was also performed to assess impact of Agelastatin A on NFkB signaling in Raji cells implanted inside the murine brain. In serum free medium, Raji cells were transfected with NFkB reporter system. 25,000 cells were intracerebrally injected into athymic mice. […] Bioluminescence imaging (BLI) of NFkB activity of intracerebral Raji lymphoma cells were measured on day 4 post intracerebral implantation.

Question: Which “Raji lymphoma cell proliferation” value (Raji lymphoma cells [1]) does the source give for `CN1C(=O)N[C@H]2[C@@H]3NC(=O)c4ccc(Br)n4[C@@H]3C[C@]21O` [AA, agelastatin A, reference compound] here?
Answer: significantly suppressed proliferation; also recorded: decreases Raji lymphoma cell proliferation

Question: What about the “Raji lymphoma cell invasion (Matrigel)” value (Raji lymphoma cells [2]) of the same compound?
Answer: significantly decreased invasiveness; also recorded: blocks Raji lymphoma cell invasion

Question: And the “penetration into brain and eye tissue compartments” value [3]?
Answer: shown to penetrate into the brain and eye tissue compartments; also recorded: can penetrate the brain and eye tissue compartments

Question: What about the “lateral dissemination of lymphoma cells” value (Raji lymphoma cells [4]; T2 (2.5 mg/kg i.p.) and T3 (5 mg/kg i.p.) groups) of the same compound?
Answer: decreased lateral dissemination of lymphoma cells

Question: And the “lymphoma cell dissemination in the anterior and posterior direction” value (Raji lymphoma cells [4]; all the treatment groups (1, 2.5, 5 mg/kg i.p.))?
Answer: Dissemination of lymphoma cells was decreased

Question: And the “dissemination of lymphoma cells in the brain” value (Raji lymphoma cells [4]; contralateral brain hemisphere, CD20 IHC)?
Answer: significantly decreased dissemination of lymphoma cells in the brain; also recorded: decreases the dissemination of Raji lymphoma cells inside the brain

Question: And the “OPN secretion by Raji cells (ELISA)” value (osteopontin)?
Answer: significantly decreased secretion of osteopontin; also recorded: decreases OPN secretion

Question: What about the “NFkB signaling in Raji cells (reporter assay)” value (NFkB signaling [5]) of the same compound?
Answer: significantly downregulated NFkB signaling; also recorded: attenuates the NFkB signaling

Question: And the “NFkB signaling activity of Raji cells implanted in the murine brain (BLI)” value (NFkB signaling [6])?
Answer: can impact the molecular signaling activity (NFkB signaling pathway) in a brain tumor; also recorded: decreased the NFkB signaling activity
